Data on 2 compounds can be found in patent US20240327364A1, “THERAPEUTIC TARGETING OF GPR68 TO INDUCE FERROPTOSIS” (University Of Maryland, Baltimore, priority 2023, published 2024).

The target of one assay is T1, CDK3 (Homo sapiens, UniProt Q00526).
T1 construct: purchased DiscoveRx (KinomeScan service)
As to the kind of experiment: KinomeScan. It counts as binding. The following applies: read-out: % Control.

The target of another assay is T2, SNARK (Homo sapiens, UniProt Q9H093).
T2 construct: purchased DiscoveRx (Fremont, CA)
As to the kind of experiment: KinomeScan. The following applies: read-out: % Control. In kind it is binding.

Assay [1] deals with T3, JAK1(JH1domain-catalytic) (Homo sapiens, UniProt P23458).
T3 construct: JAK1(JH1domain-catalytic); purchased DiscoveRx (Fremont, CA)
Briefly: KinomeScan. In kind it is binding. To be noted: read-out: % Control.

The target in a further assay is T4, RIPK1 (Homo sapiens, UniProt Q13546).
T4 construct: purchased DiscoveRx (Fremont, CA)
Briefly: KinomeScan. To be noted: read-out: % Control. In kind it is binding.

For another assay, the target named is T5, FLT3(R834Q) (Homo sapiens, UniProt P36888, R834Q).
T5 construct: purchased DiscoveRx (Fremont, CA)
As to the kind of experiment: KinomeScan. It counts as binding. To be noted: read-out: % Control.

A further assay has as its target T6, CCR10 (Homo sapiens, UniProt P46092).
T6 construct: host or cells: Chem-1 cells with Gα15
As to the kind of experiment: GPCR Profiler. It counts as cell-based.

The next assay addresses T7, CXCR3 (Homo sapiens, UniProt P49682).
T7 construct: host or cells: Chem-1 cells with Gα15
As to the kind of experiment: GPCR Profiler. In kind it is cell-based.

A further assay has as its target T8, ABL1-phosphorylated (Homo sapiens, UniProt P00519).
T8 construct: purchased DiscoveRx
As to the kind of experiment: KinomeScan. To be noted: read-out: % Control. In kind it is binding.

The next assay concerns the target T9, CysLT1 (Homo sapiens, UniProt Q9Y271).
T9 construct: host or cells: Chem-1 cells with Gα15
As to the kind of experiment: GPCR Profiler. It counts as cell-based.

In the next assay the target is T10, PK2 (Homo sapiens, UniProt Q8NFJ6).
T10 construct: host or cells: Chem-1 cells with Gα15
Briefly: GPCR Profiler. In kind it is cell-based.

A further assay concerns the target T11, ZAP70 (Homo sapiens, UniProt P43403).
T11 construct: purchased DiscoveRx
Briefly: KinomeScan. In kind it is binding. The following applies: read-out: % Control.

Another assay has as its target T12, MET(Y1235D) (Homo sapiens, UniProt P08581, Y1235D).
T12 construct: purchased DiscoveRx
As to the kind of experiment: KinomeScan. It counts as binding. To be noted: read-out: % Control.

For the next assay, the target named is T13, FGFR3 (Homo sapiens, UniProt P22607).
T13 construct: purchased DiscoveRx (Fremont, CA)
Briefly: KinomeScan. It counts as binding. To be noted: read-out: % Control.

Another assay deals with T14, IKK-epsilon (Homo sapiens, UniProt Q14164).
T14 construct: purchased DiscoveRx (Fremont, CA)
Briefly: KinomeScan. It counts as binding. To be noted: read-out: % Control.

A further assay has as its target T15, CCR8 (Homo sapiens, UniProt P51685).
T15 construct: host or cells: Chem-1 cells with Gα15
Briefly: GPCR Profiler. In kind it is cell-based.

The target of another assay is T16, PLK2 (Homo sapiens, UniProt Q9NYY3).
T16 construct: purchased DiscoveRx (Fremont, CA)
As to the kind of experiment: KinomeScan. It counts as binding. To be noted: read-out: % Control.

The next assay deals with T17, MAP4K2 (Homo sapiens, UniProt Q12851).
T17 construct: purchased DiscoveRx (Fremont, CA)
As to the kind of experiment: KinomeScan. In kind it is binding. To be noted: read-out: % Control.

A further assay concerns the target T18, CAMK2A (Homo sapiens, UniProt Q9UQM7).
T18 construct: purchased DiscoveRx (KinomeScan service)
As to the kind of experiment: KinomeScan. In kind it is binding. The following applies: read-out: % Control.

A further assay concerns the target T19, NEK6 (Homo sapiens, UniProt Q9HC98).
T19 construct: purchased DiscoveRx
Briefly: KinomeScan. It counts as binding. To be noted: read-out: % Control.

For another assay, the target named is T20, V1B (Homo sapiens, UniProt P47901).
T20 construct: host or cells: Chem-1 cells with Gα15
As to the kind of experiment: GPCR Profiler. It counts as cell-based.

The subject of assay [2] is U87 glioblastoma spheroids. As to the kind of experiment: Matrigel matrix invasion of spheroids. It counts as cell-based. The text has this: U87 glioblastoma spheroids were formed in low attachment round bottom plates for 3 days. Spheroids were then covered in Matrigel™, which was allowed to polymerize before treatment with acidified media with or without OGM2. Acidification increased the degree of matrix invasion which is attenuated by OGM2.

For the next assay, the system named is SW480. Briefly: Cell Titer-Glo viability, Colon adenocarcinoma. To be noted: 72 hours. In kind it is cell-based. How it is done: OGM2 kills wide variety of cancer cell types. Cell sensitivity can be classified in to Very Sensitive (LC50<2 μM), Sensitive (LC50=2 to 10 μM), Mildly Sensitive (LC50>10 μM), and Refractory (no killing at 10 μM). The listed established cell were incubated with OGM2 at 2 μM or 10 μM for 72 hours under standard cell culture conditions, and relative cell number was assessed using Cell Titer-Glo Luminescent Cell Viability Assay (Promega™) following the manufacturer's instructions. Luminescence was determined using a Cytation 5 reader and Gen5 software package (BioTek™).
Cancer cells, which are very sensitive to killing by OGM2 (LCs <2 μM), with reported mRNA expression of GPR68 and the related proton sensing receptor GPR4. LC50's (concentrations causing 50% lethality) were determined using CellTiter-Glo (Promega™, G7570). Cells were plated in 12-well plates (CELLTREAT Scientific Products, 229112) in 1 ml of DMEM with high glucose, GlutaMAX, HEPES, or RPMI 1640 with Penicillin-Streptomycin (ThermoFisher™, 10564029, 11875119 and 15140122) and 10% FBS. Cells were incubated overnight at 37° C. in 5% CO2. Then 1 mL of fresh media was added with DMSO, OGM, or positive control (Erastin; APExBIO Technology, LLC, B1524) and cells incubated for 3 days. On the third day, all media was removed, cells were rinsed with 1×PBS, PBS was removed, and 200 μL of 1× Passive Lysis Buffer (Promega™, E1941) was added to each well. […]. […] Plates were briefly spun down and read on a GloMax-Multi Detection System (Promega™).
The cells listed in the tables above were incubated with OGM2 at 2 μM or 10 μM for 72 hours under standard cell culture conditions, and relative cell number was assessed using Cell Titer-Glo Luminescent Cell Viability Assay (Promega™) following the manufacturer's instructions. Luminescence was determined using a Cytation 5 reader and Gen5 software package (BioTek™). […] The consensus normalized expression value (“nTPM”=normalize transcript per million) was calculated as the maximum nTPM value for each gene in the two data sources.
On the technique in general: ATP-based viability assays read luminescence as a measure of living cells.

T10 sequence (Q8NFJ6 whole entry): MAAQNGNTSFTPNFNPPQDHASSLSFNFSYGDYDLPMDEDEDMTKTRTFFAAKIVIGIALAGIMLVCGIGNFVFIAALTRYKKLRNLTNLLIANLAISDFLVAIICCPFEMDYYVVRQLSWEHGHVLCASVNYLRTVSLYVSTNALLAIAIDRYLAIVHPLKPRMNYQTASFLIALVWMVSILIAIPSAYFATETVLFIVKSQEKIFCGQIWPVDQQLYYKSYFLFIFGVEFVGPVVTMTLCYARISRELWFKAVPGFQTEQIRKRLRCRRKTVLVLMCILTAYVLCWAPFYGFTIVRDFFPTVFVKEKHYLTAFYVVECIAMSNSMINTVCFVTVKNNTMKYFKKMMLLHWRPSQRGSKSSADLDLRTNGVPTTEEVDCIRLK
T6 sequence (P46092 whole entry): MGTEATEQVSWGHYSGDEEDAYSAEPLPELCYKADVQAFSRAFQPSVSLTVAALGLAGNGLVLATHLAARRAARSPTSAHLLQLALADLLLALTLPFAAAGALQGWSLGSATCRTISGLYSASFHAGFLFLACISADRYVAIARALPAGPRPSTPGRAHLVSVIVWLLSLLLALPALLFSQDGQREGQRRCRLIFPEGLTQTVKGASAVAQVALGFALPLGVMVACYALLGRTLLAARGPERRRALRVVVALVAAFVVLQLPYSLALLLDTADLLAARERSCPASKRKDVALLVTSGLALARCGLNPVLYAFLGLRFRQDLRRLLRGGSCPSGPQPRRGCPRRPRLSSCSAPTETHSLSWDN
T15 sequence (P51685 whole entry, species assumed): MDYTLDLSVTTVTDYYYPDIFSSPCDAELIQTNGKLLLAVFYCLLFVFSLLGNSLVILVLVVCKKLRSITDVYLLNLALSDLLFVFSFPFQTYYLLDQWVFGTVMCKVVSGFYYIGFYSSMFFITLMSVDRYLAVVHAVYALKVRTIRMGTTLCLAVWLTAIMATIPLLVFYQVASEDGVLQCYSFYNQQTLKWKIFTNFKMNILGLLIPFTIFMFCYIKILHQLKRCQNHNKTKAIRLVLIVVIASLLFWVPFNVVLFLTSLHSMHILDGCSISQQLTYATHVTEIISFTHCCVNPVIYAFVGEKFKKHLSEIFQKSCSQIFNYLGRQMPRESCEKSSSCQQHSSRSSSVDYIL
T7 sequence (P49682 whole entry, species assumed): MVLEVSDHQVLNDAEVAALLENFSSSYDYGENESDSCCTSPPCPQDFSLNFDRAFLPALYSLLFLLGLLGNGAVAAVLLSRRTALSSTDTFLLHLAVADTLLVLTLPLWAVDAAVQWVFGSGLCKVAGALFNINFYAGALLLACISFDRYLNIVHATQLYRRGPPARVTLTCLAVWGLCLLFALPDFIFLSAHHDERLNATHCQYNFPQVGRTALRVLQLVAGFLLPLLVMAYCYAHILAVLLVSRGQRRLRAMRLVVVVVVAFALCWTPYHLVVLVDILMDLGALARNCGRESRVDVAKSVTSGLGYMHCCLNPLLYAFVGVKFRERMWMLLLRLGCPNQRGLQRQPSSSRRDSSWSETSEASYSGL
T20 sequence (P47901 whole entry): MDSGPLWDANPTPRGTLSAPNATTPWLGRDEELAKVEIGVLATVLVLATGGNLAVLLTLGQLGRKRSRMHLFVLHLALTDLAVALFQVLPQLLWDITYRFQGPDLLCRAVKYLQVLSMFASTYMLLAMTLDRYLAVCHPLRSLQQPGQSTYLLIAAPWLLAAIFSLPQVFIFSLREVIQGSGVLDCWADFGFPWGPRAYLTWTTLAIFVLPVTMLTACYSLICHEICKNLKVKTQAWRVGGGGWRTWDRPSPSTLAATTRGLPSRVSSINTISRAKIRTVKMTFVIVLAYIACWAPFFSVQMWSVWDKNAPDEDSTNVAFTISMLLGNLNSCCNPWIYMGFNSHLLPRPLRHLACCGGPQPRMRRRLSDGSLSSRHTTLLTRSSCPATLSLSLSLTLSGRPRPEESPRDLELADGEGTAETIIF
T9 sequence (Q9Y271 whole entry, species assumed): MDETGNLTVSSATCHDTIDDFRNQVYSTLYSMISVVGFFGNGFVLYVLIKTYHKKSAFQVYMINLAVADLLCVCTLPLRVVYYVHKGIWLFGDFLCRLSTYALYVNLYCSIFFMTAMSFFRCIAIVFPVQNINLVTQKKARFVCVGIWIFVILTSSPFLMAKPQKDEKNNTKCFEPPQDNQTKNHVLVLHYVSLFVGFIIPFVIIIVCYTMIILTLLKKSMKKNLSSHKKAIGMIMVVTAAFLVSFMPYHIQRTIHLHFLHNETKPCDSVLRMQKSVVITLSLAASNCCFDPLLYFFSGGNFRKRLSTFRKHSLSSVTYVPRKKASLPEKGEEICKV
T4 sequence (Q13546 whole entry): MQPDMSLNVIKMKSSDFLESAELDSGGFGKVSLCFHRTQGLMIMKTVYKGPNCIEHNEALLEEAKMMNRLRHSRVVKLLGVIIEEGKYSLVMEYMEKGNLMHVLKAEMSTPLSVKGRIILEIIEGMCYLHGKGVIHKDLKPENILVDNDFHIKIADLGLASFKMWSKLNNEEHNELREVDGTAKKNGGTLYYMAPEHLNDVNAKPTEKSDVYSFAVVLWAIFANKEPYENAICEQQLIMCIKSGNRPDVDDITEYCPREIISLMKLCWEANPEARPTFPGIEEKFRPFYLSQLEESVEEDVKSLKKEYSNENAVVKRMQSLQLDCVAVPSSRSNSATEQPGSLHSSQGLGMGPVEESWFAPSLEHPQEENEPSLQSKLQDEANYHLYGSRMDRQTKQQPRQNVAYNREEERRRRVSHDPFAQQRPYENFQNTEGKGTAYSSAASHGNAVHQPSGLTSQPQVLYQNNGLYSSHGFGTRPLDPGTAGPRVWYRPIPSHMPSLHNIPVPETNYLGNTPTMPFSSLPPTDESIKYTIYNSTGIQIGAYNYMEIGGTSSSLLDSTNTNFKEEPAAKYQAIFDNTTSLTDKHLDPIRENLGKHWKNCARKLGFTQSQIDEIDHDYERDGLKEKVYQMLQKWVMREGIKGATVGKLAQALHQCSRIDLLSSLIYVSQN
T1 sequence (Q00526 whole entry): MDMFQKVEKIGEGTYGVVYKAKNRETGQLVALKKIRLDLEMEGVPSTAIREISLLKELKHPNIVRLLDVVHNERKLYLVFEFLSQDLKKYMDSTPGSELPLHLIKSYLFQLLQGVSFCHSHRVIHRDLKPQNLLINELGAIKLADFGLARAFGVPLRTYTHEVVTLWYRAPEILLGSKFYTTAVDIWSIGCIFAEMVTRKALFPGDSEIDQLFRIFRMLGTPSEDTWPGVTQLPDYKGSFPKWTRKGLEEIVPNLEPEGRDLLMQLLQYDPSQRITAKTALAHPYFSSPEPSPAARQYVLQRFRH
T18 sequence (Q9UQM7 whole entry): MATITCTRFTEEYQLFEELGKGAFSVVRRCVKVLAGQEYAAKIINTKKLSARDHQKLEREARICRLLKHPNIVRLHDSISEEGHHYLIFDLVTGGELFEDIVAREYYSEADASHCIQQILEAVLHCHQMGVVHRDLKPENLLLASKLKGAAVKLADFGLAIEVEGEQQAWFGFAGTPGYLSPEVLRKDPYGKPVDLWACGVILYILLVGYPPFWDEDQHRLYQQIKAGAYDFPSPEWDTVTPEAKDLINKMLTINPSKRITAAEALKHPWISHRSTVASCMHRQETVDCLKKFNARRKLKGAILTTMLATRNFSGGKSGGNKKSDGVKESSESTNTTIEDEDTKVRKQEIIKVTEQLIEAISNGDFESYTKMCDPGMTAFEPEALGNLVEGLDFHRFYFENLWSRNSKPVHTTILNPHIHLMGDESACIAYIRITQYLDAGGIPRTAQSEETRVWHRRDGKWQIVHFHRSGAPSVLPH
T14 sequence (Q14164 whole entry): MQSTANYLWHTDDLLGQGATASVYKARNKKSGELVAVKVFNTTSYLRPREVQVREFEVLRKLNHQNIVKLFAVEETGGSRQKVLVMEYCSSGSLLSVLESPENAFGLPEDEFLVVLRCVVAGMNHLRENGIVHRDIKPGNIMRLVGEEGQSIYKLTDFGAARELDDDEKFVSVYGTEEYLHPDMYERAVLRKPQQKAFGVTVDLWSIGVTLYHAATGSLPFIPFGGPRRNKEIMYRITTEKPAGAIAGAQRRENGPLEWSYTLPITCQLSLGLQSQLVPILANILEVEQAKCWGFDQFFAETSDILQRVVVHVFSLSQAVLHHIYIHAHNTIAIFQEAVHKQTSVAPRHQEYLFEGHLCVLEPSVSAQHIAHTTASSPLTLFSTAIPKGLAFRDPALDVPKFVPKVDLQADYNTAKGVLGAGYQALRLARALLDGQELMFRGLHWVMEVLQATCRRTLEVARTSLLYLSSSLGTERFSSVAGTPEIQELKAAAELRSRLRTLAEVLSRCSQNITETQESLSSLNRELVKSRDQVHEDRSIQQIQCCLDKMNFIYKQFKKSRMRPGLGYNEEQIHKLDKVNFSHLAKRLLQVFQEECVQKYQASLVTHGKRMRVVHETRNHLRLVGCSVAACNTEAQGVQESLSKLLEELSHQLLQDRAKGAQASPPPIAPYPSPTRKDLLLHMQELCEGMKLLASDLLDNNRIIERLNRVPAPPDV
T19 sequence (Q9HC98 whole entry): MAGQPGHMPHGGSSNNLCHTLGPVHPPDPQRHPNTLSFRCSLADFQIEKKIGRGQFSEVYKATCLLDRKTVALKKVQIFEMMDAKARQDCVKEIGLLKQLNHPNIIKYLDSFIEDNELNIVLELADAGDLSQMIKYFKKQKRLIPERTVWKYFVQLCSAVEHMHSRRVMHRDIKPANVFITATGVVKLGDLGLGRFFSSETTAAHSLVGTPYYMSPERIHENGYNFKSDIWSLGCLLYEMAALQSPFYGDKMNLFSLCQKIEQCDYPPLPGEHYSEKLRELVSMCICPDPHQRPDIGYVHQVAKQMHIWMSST

Regarding `CCc1ccc2c(c1)C1(NN=C(c3cccc4ccccc34)S1)C(=O)N2` (stereo not drawn) [OGM1, 5-ethyl-5′-naphthalen-1-ylspiro[1H-indole-3,2′-3H-1,3,4-thiadiazole]-2-one], the remaining binding at 10 µM at CDK3 was determined as 81%; on SNARK it was 100%; in [1] it was 59%; at RIPK1, 100%; on FLT3(R834Q) it was 100%; on ABL1-phosphorylated, 93%. For the same compound, the remaining binding at 10 µM at ZAP70 is 73%; at MET(Y1235D) it was 100%; at FGFR3 it was 100%; at IKK-epsilon, 100%; on PLK2, 100%; at MAP4K2 it was 83%. In addition, the remaining binding at 10 µM on CAMK2A was determined as 75%; on NEK6, 100%. Further, the Antagonism is reported as −16.7 on CCR10 (10 uM); −2 on CXCR3 (10 uM); −2.4 on CysLT1 (10 uM); 7.2 on PK2 (10 uM); −2.5 at CCR8 (10 uM); −2.8 at V1B (10 uM). In addition, the Agonism at CCR10 (12.5 uM) was −0.2; at CXCR3 (12.5 uM), 0.1; at CysLT1 (12.5 uM), 0.8; at PK2 (12.5 uM), −0.1; at CCR8 (12.5 uM), 2; on V1B (12.5 uM), −0.1.
For the compound `CCc1ccc2c(c1)C1(NN=C(c3ccccc3)S1)C(=O)N2` (stereo not drawn) [OGM2], in assay [2], the acidification-increased matrix invasion entry is “attenuated”. In addition, in the assay on SW480, the “% Survival 2 μM OGM” value is 39.8% and the “% Survival 10 μM OGM” value was determined as 25.0%. The CC50 in the assay on SW480 (Homo sapiens, SW480, read-out: LC50 (the source's name)) is less than 2000 nM.
